Reference: publication PMC7340446, “Optimization of PTH/PTHrP Hybrid Peptides to Derive a Long‐Acting PTH Analog (LA‐PTH)” (JBMR Plus, 2020)
Where no end group is shown, it is not given here.

Assay: Pharmacokinetics in normal rats, i.v., plasma peptide by ELISA
Type: in vivo, rat
Settings: i.v. 10 nmol/kg, plasma with protease inhibitors, n = 4 (M‐PTH/PTHrP) or 3 (PTH(1–34))
Experimental: For pharmacokinetic studies, plasma samples were prepared in the presence of protease inhibitors (aprotinin, leupeptin, EDTA). Plasma levels of PTH(1–34) were assessed by ELISA assay (Human PTH(1–34) Specific ELISA Kit; Immutopics Inc, San Clemente, CA, USA), and plasma levels of M‐PTH/PTHrP were assessed by ELISA assay (PTH‐RP 1–34 Human Enzyme Immunoassay Kit; Peninsula Laboratories International, San Carlos CA, USA) using M‐PTH/PTHrP peptides as standard solutions.
Figure 3 Pharmacodynamic and pharmacokinetic profiles of M‐PTH/PTHrP and PTH(1–34) in rats. (A) Effects of M‐PTH/PTHrP and PTH(1–34) on blood ionized Ca in TPTX rats by i.v. injection. M‐PTH/PTHrP and PTH(1–34) were injected intravenously in TPTX rats at the indicated doses, and blood samples were collected from the tail vein measured for ionized Ca; data are means ± SE; n = 5 or 3 (PTH(1–34)). *p < 0.05, **p < 0.01, ***p < 0.005 M‐PTH/PTHrP or PTH(1–34) versus TPTX‐vehicle. […] M‐PTH/PTHrP and PTH(1–34) each at a dose of 10 nmol/kg were i.v. administered, and blood samples were collected from the jugular vein in the presence of proteinase inhibitors (Aprotinin, Leupeptin, and EDTA) and the plasma samples were assessed for peptide concentration using a hPTHrP(1–34)‐targeted EIA for M‐PTH/PTHrP and an hPTH(1–34)‐targeted ELISA for PTH(1–34). […]

Sequence: AVAEIQLMHQRAKWIQDLRRRFFLHHLIAEIHTAEI [M‐PTH(1‐14)/PTHrP(15‐36), [Ala^1,3,12,Gln^10,Arg^11,Trp^14]‐PTH(1‐14)/PTHrP(15–36)]
- Time by which plasma concentration declined to the lowest detection level: ≤ 60 min
